Experimental data as given in publication PMC3050433, “The effects of maribavir on the autophosphorylation of ganciclovir resistant mutants of the cytomegalovirus UL97 protein” (Herpesviridae, 2010).
Where a chain is given by its changes, count along the chain named.

Experiments:
[1] = system: HCMV; set-up: method as in PMID 12121906; conditions: HCMV replication in vitro; cited from earlier work
[2] = target: T1, UL97 L397R (Human cytomegalovirus, UniProt Q68101, L397R); experiment: UL97 autophosphorylation protein kinase assay, L397R; type: biochemical; conditions: L397R mutant
T1 construct: PCR reaction to generate the full length UL97; honey bee melittin secretion signal (N); expressed in transfected cells; host or cells: Sf21 insect cells infected with recombinant baculovirus
T1 sequence (Q68101 1-707 L397R): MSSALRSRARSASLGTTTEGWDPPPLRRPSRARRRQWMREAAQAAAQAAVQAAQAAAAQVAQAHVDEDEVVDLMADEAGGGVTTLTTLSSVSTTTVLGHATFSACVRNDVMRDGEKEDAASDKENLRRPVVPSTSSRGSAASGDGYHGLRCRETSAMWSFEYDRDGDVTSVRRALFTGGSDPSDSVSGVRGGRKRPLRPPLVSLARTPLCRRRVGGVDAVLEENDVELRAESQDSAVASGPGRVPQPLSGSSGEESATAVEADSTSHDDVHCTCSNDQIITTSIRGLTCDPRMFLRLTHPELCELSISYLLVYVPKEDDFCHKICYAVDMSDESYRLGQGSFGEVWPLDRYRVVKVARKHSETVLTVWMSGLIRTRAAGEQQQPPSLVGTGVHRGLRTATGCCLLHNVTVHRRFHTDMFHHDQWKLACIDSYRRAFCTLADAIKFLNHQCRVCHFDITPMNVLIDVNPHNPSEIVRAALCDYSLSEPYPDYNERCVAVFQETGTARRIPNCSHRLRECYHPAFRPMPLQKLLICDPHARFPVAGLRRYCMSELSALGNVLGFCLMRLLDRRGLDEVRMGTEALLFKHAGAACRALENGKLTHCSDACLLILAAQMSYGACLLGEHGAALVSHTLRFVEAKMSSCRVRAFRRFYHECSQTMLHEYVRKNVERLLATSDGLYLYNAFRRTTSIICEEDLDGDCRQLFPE
Description: (§1) Analysis of the autophosphorylation of wild type and mutant UL97 protein species was performed by a standard protein kinase assay as previously described (46). Briefly, purified protein was added to 2× protein kinase buffer (100 mM Tris HCl, pH9.0, 20 mM MgCl2, 10 μM ATP, 4 mM DTT, 2 M NaCl) and 370 KBq [γ^32P] ATP (Amersham), made up to 20 μl with SDW and incubated at 37°C. The reactions were terminated by the addition of 2× SDS sample buffer followed by boiling for 3 minutes. The amount of radiolabelled phosphate incorporated by autophosphorylation was analysed by SDS-PAGE and measured using the Biorad Mulitanalyst. The protein kinase assays were initially performed for 2 to 60 minutes to determine the maximum rate of phosphate incorporation, all assays were then performed at the maximum rate which equated to 5 minutes.
(§2) Enzyme kinetic analysis was performed on the purified wild type and mutant UL97 protein species as above using increasing concentrations of ATP (2 μM to 20 μM). The amount of incorporated radiolabelled phosphate was plotted against the concentration of ATP in a Lineweaver Burke plot to determine the Km for ATP for each UL97 species. […]

[3] = target: T2, UL97 H662L (Human cytomegalovirus, UniProt Q68101, H662L); experiment: UL97 autophosphorylation protein kinase assay, H662L; type: biochemical; conditions: H662L mutant
T2 construct: PCR reaction to generate the full length UL97; honey bee melittin secretion signal (N); made in house; host or cells: Sf21 insect cells, recombinant baculovirus (pMelBac C)
T2 sequence (Q68101 1-707 H662L): T1 sequence (Q68101 1-707 L397R) with R397L, H662L
Description: as §1, §2

CC(C)Nc1nc2cc(Cl)c(Cl)cc2n1[C@H]1O[C@@H](CO)[C@H](O)[C@@H]1O [maribavir, 5,6-dichloro-2-(isopropylamino)-1-beta-L-ribofuranosyl-1H-benzimidazole]
IC50 fold lower than that observed for GCV [1]: 4-to 10 fold
reduction in autophosphorylation ([2]; drug concentrations increased to 100 μM): did not exhibit a reduction in autophosphorylation
effect on autophosphorylation ([2]; maribavir 0.5 μM): unaffected
IC50 [3]: 40 nM
